This is an account of results in patent publication US11760751B2, “Benzo 2-azaspiro[4.4]nonane compound and use thereof” (HELIOEAST PHARMACEUTICAL CO., LTD., priority 2020, dated 2023).

Series [1] in a line: Pharmacokinetic evaluation in SD rats (intravenous and oral). It counts as in vivo. The conditions noted are these: male, Sprague-Dawley, plasma, SD rat. As for the experimental part: Test Embodiment 3: Pharmacokinetic Evaluation of Compound in Rats
Experimental objective: to test the pharmacokinetics of the compound in SD rats
Sprague Dawley rat (male, 200-300 g, 7-9 weeks old, Shanghai SLAC)
(§1) A standard protocol was used to test the pharmacokinetic characteristics of rodents after intravenous injection and oral administration of the compound. In the experiment, the candidate compound was prepared into a clear solution, and administrated to rats by single intravenous injection and oral administration. The vehicle for intravenous injection was a 5:95 DMSO and 10% hydroxypropyl cyclodextrin aqueous solution, and the vehicle for oral administration was a 0.5% w/v methylcellulose and 0.2% w/v tween 80 aqueous solution. Whole blood samples within 24 hours were collected, centrifuged at 3000 g for 15 minutes, and the supernatant was separated to obtain plasma samples. 4-fold volume of acetonitrile solution containing internal standard was added thereto to precipitate protein. The mixture was centrifuged, and the supernatant was taken, and an equal volume of water was added thereto. Then the mixture was centrifuged and the supernatant was taken for injection. The blood drug concentration was quantitatively analyzed by LC-MS/MS analysis method, and pharmacokinetic parameters, such as peak concentration, clearance rate, half-life, area under the drug-time curve and bioavailability, were calculated.

A short description of series [2]: Pharmacokinetic evaluation in CD-1 mice (intravenous and oral). The following applies: male, mouse, plasma; for Cmax / bioavailability: intravenous 0.5 mg/kg; for Cmax: oral 2.0 mg/kg (route of Cmax not stated), read-out: Peak concentration Cmax; for bioavailability: oral 2.0 mg/kg, read-out: Bioavailability F; for clearance / Vd: intravenous injection 0.5 mg/kg (oral 2.0 mg/kg); for clearance: read-out: Clearance rate CL; for Vd: read-out: Tissue distribution Vdss; for AUC(0-t) / half-life: oral administration 2.0 mg/kg; for AUC(0-t): read-out: Area under the drug-time curve AUC0-last PO; for half-life: read-out: Half-life T1/2 (PO) (converted). It counts as in vivo. The method, then: Test Embodiment 4: Pharmacokinetic Evaluation of Compound in Mice
Experimental objective: to test the pharmacokinetics of the compound in CD-1 mice
CD-1 mice (male, 20-40 g, 6-10 weeks old, Shanghai BK)
as §1, with “The standard” for “A standard”, “clear solution or a suspension,” for “clear solution,”, “to two mice” for “to rats”, “hydroxypropyl β-cyclodextrin” for “hydroxypropyl cyclodextrin”, “at 3200” for “at 3000”, “for 10” for “for 15”

Series [3] deals with T1, S1PR1 (Homo sapiens, UniProt P21453).
T1 construct: expressed in transfected cells
T1 sequence (P21453 whole entry): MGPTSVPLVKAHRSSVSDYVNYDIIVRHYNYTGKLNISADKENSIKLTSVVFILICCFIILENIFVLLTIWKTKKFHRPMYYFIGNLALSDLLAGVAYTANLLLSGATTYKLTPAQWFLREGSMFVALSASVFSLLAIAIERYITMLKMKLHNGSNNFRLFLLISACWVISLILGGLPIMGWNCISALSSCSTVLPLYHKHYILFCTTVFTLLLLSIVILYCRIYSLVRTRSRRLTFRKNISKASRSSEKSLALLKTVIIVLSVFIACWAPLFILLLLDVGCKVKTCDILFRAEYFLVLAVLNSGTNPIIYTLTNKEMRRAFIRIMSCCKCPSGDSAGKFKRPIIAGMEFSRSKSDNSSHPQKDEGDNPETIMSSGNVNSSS
Nature of the series: In vitro S1PR1 agonistic activity, PathHunter cell line, chemiluminescent detection. In kind it is cell-based. The following applies: for EC50: 90-180 min at 37° C.; for Emax: % activity vs maximum control ligand. As for the experimental part:
Test Embodiment 1: In Vitro Evaluation of the Agonistic Activity of the Compounds of the Present Disclosure on S1PR1
(§2) Experimental objective: to detect the agonistic activity of compounds on S1PR1
I. Cell Treatment • 1. A PathHunter cell line was thawed according to standard procedures; • 2. the cells were inoculated in a 20 μL 384-well microplate and incubated at 37° C. for appropriate time.
II. Agonist • 1. For agonist determination, cells were incubated with samples to be tested to induce a reaction; • 2. a storage solution to be tested was 5-fold diluted into a buffer; • 3. 5 μL of the 5-fold dilution was added to the cells and incubated at 37° C. for 90-180 minutes. The vehicle concentration was 1%.
III. Signal Detection • 1. 12.5 μL or 15 μL of PathHunter detection reagent at a volume ratio of 50% was added at a time, and then incubated at room temperature for 1 hour to generate a detection signal; • 2. the microplate was read with a PerkinElmer Envision™ instrument for chemiluminescent signal detection.
IV. Data Analysis • 1. Activity analysis of the compound was carried out by using CBIS data analysis kit (ChemInnovation, CAA); • 2. calculation formula: % activity=100%×(average test sample RLU−average vehicle RLU)/(average maximum control ligand−average vehicle RLU)

The target in series [4] is T1, S1PR1. Nature of the series: In vitro S1PR1 agonistic activity, U2OS-EDG1 cells, LiveBLAzer-FRET B/G (CCF4-AM). It counts as cell-based. The following applies: for EC50: 20 hours incubation; for Emax: % Effect, read-out: Emax. As for the experimental part: Test Embodiment 2: In Vitro Evaluation of the Agonistic Activity of the Compounds of the Present Disclosure on S1PR1
as §2
I. Cell Treatment • 1. The cells U2OS-EDG1 (batch number: Invitrogen-K1520) were taken out from a liquid nitrogen tank and quickly thawed in a 37° C. water bath; • 2. the cell suspension was aspirated into a 15 mL centrifuge tube, resuspended in 5 mL of pre-warmed culture medium, and centrifuged at 1000 rpm for 5 min; • 3. the supernatant was discarded, 10 mL of culture medium was resuspended, transferred to a T75 culture flask, and cultured in a 37° C., 5% CO2 incubator.
II. Agonist Assay • 1. Compounds were diluted to working concentrations, and the compounds were 3-fold diluted by Echo 555 (manufacturer: Labcyte) to 10 concentrations, and then 200 nL of each concentration were transferred to cell plates, and centrifuged at 1000 rpm for 15 seconds; • 2. the culture medium in the culture flask was aspirated, and 4 mL of Dulbecco's Phosphate Buffered Saline (DPBS, supplier: Coring, catalog number: 21-031-CVR, batch number: 03318006) was added thereto to wash off the residual serum, and 2 mL of trypsin was added thereto, and incubated in a 37° C. incubator for 2 minutes to digest the cells, and then 10 mL of seed plate culture medium was added to resuspend the cells, and 0.6 mL of the cell suspension was taken out for counting; • 3. the cell density was adjusted with the seed plate culture medium to 1.88E+05 cells/mL, 40 μL was seeded per well (7500\well), and 40 μL of FreeStyle™ Expression culture medium was added around the cell plate, left to stand for 15 minutes at room temperature, and incubated at 37° C. with 5% CO2 for 20 hours.
III. Signal Detection • 1. LiveBLAzer™-FRET B/G Substrate (CCF4-AM) detection reagent was configured according to the instructions; • 2. 8 μL of 6×Substrate Mixture was added to each well of the cell plate, centrifuged at 1000 rpm for 15 seconds, attached with a membrane, incubated at 23° C. for 2 hours, and detected by Envision […].
IV. Data Analysis • 1. The original data was converted into % Effect by using the equation, and the value of EC50 could be obtained by curve fitting with four parameters [obtained in the “log(agonist) vs. response—Variable slope” mode in GraphPad Prism]; • 2. calculation formula: Ratio=(460 nm−blank)/(535 nm−blank) % Effect=(SampleRatio−Ave LCRatio)/(Ave HCRatio−Ave LCRatio)*100%

Counter-ions that a name gives are not always drawn.

As to `CC(C)Oc1ccc(-c2nc(-c3cccc4c3CCC43CCN(C(=O)CO)C3)no2)cc1C#N` (stereo not shown) [Compound 1], the Cmax in series [1] (intravenous 1.0 mg/kg, oral 3.0 mg/kg (route of Cmax not stated), read-out: Peak concentration Cmax) is 1140 ng/mL; in series [2] it was 615 ng/mL. Besides, the bioavailability in series [1] (intravenous 1.0 mg/kg, oral 3.0 mg/kg, read-out: Bioavailability F) turned out to be 83.1%; in series [2], 70.1%. In addition, the clearance in series [1] (intravenous injection 1.0 mg/kg (oral 3.0 mg/kg), read-out: Clearance rate CL) was determined as 5.97 mL/min/kg; in series [2], 18.2 mL/min/kg. Further, the Vd in series [1] (intravenous injection 1.0 mg/kg (oral 3.0 mg/kg), read-out: Tissue distribution Vdss) came to 2.66 L/kg; in series [2], 2.17 L/kg. Also, the AUC(0-t) in series [1] (oral administration 3.0 mg/kg, read-out: Area under the drug-time curve AUC0-last PO) was 11.5 µM·h; in series [2], 2.74 µM·h. Moreover, the half-life was 4.91 h in series [1] (oral administration 3.0 mg/kg, read-out: Half-life T1/2 (PO) (converted)) and 3.61 h in series [2]. In addition, at S1PR1 [3], a half-maximal response (EC50) required 0.137 nM. Further, the Emax on S1PR1 [3] stood at 122%.

In the case of `CC(C)Oc1ncc(-c2nc(-c3cccc4c3CCC43CCN(C(=O)CO)C3)no2)cc1C#N` (stereo not shown) [Compound 8], in series [2], the Cmax amounted to 2280 ng/mL, the bioavailability was 80.3%, the clearance is 3.58 mL/min/kg and the Vd was found to be 0.816 L/kg. Further, in series [2], the AUC(0-t) worked out at 16.3 µM·h and the half-life was 2.9 h. At S1PR1 [3], this compound gave an EC50 of 0.188 nM and an Emax of 96.8%.

`CC(C)Oc1ccc(-c2nc(-c3cccc4c3CCC43CCN(CC4(C(=O)O)CC4)C3)no2)cc1C(F)F` (stereo not shown) [Hydrochloride of compound 29]: at S1PR1 [4], a half-maximal response (EC50) required 0.0211 nM and the Emax stood at 91.5%.

With `CC(C)Oc1ccc(-c2nc(-c3cccc4c3CCC43CCN(CC4(C(=O)O)CC4)C3)no2)cc1Br` (stereo not shown) [Hydrochloride of compound 30], on S1PR1 [4], the EC50 amounted to 0.132 nM and the Emax is 103%.

In the case of `N#Cc1cc(-c2nc(-c3cccc4c3CCC43CCN(CC4(C(=O)O)CC4)C3)no2)ccc1OC1CCCC1` (stereo not shown) [Hydrochloride of compound 31], on S1PR1 [4], a half-maximal response (EC50) required 0.456 nM and the Emax is 101%.

In the case of `CC(C)Oc1ncc(-c2nc(-c3cccc4c3CCC43CCN(CC4(C(=O)O)CC4)C3)no2)cc1C#N` (stereo not shown) [Hydrochloride of compound 32], at S1PR1 [4], the EC50 worked out at 1.45 nM and the Emax is 95.9%.

On to `CC(C)Nc1ncc(-c2nc(-c3cccc4c3CCC43CCN(CC4(C(=O)O)CC4)C3)no2)cc1C#N` (stereo not shown) [Hydrochloride of compound 33], for which, at S1PR1 [4], a half-maximal effect (EC50) was put at 10.2 nM and the Emax is 99.9%.

Take `N#Cc1cc(-c2nc(-c3cccc4c3CCC43CCN(CC4(C(=O)O)CC4)C3)no2)ccc1OC(F)F` (stereo not shown) [Hydrochloride of compound 34]: on S1PR1 [4], the response was half-maximal at 6.07 nM (EC50) and the Emax came out at 94.9%.

The term bioavailability denotes the share of a dose that reaches the circulation, judged against a reference dose that is usually intravenous. One may read the EC50 as the midpoint of the concentration-response curve. In general, Emax refers to the size of the effect at its maximum, as opposed to the concentration needed.
